Test results: patent US20060014726A1, “Derivatives of cyclic1, 3- propanediol phosphate and their action in differentiation therapy” (priority 2002, published 2006)

System: estrogen receptor-α (ER-α) in MCF-7 cells
Experiment: Western blot analysis of ER-α level in MCF-7 cells
Type: cell-based, human
Conditions: MCF-7 cells; for increase in the level of wild type ER-α receptor (MW 70,000): 1-100 μM 1,3cPP
Description: Turning to FIG. 1 there are shown Western blot analyses showing the effect of 1,3cPP on the expression level of ER-α. In the ER-α assay, MCF-7 cells were incubated with 1-100 μM 1,3cPP for up to 14 days. The analysis indicates a relative increase in the level of wild type ER-α receptor (MW 70,000) with either an increase in 1,3cPP concentration or time of incubation. On days 6 and 14, a nearly 2-fold and 3-fold increase were observed, respectively (FIGS. 1A, C, D, F). […] This band could be related to one of deleted exons D3-4 (MW 49,000), D4 (MW 54,000), or D7 (MW 51,000) ER-α variants.
Breast Cancer Cells. The human breast cancer MCF-7 cell line were obtained from Prof. Hadassa Degani, of Weizmann Institute of Science, Rehovot, Israel. The cells were grown as monolayers in high glucose DMEM supplemented with 6% fetal calf serum and combined antibiotics. Human breast cancer T47D cells, clones 8 (ER^loPR^lo) and 11 (ER^+PR^+) were obtained from Prof Iafa Keydar, Tel-Aviv university and were grown in DMEM supplemented with 10% fetakl calf serum antibiotics. K562 erythroleukemia cells were obtained from Dr. Alfa Peled of Weizmann Institute of Science, Rehovot, Israel. These cells were grown in RPMI 1640 containing 10% fetal calf serum and antibiotics. All lines were grown at 37° C. in the presence of 5% CO2. The absence of Mycoplasma contamination was monitored by a Mycotrim TC test (Irvine Scientific, Santa Ana, Calif.) carried out once every 3 months.
For ER-α protein analysis, MCF-7 and T47D cells were cultured in 60×15 mm petri dishes. From the second day of culture onward, the cells were treated with various concentrations of 1,3cPP for up to 14 days. At the end of the incubation period, the medium was aspirated and the cells were washed 3 times with cold (4° C.) PBS. The cells were then gently scraped off using a rubber policeman in 0.25 ml of lysis buffer composed of 50 mM β-glycerophosphate, 1 mM DTT, 1.5 mM EGTA, 1 mM EDTA, 1% (Octylphenoxy)polyethoxyethanol (IGEPAL, Sigma, St. Louis, Mo.), a nonionic detergent, and a cocktail of protease inhibitors, including 1 mM phenylmethylsulfonyl fluoride (PMSF), 1 mM benzamidine, 10 μg/ml aprotinin, 10 μg/ml leupeptin, and 2 μg/ml pepstanin, as well as 1 mM sodium orthovanadate (Sigma, St. Louis, Mo.) as a phosphatase inhibitor. […] The protein concentration in each sample (1.5-4 mg/ml) was determined using the Coomassie Protein Assay (Pierce, Rockford, Ill.) according to the manufacturer's instructions. […] Bound antibodies were detected by horseradish peroxidase-conjugated goat anti-rabbit IgG, (Transduction Laboratories, Lexington, Ky. using the ECL detection method. Band densities were quantified by densitometry (Biorad model GS-690 Imaging densitometer) using Molecular Analyst software.

In the case of `O=P1(O)OCCCO1` [1,3-cPP, 1,3-cyclic propanediol phosphate], the “increase in the level of wild type ER-α receptor (MW 70,000)” value (day 6, Western blot densitometry) is reported as roughly 2 fold, the “increase in the level of wild type ER-α receptor (MW 70,000)” value (day 14, Western blot densitometry) is reported as roughly 3 fold and the “increase in the intensity of a ER variant with an approximate MW of 50,000” value (day 11, Western blot) is reported as 5 fold.
